The record followed here is US20200131144A1, “AMINE OR (THIO)AMIDE CONTAINING LXR MODULATORS” (Phenex-FXR GmbH, priority 2017, published 2020).

The structures appear in SMILES notation.

In general, EC50 refers to the concentration at which the effect is half-maximal.

The target in data set [1] is T1, LXRα full length (FL) (Homo sapiens, UniProt Q13133).
T1 construct: the full length (FL) proteins of LXRα (amino acids 1-447); NP005684; expressed in transfected cells; host or cells: HEK293
T1 sequence (Q13133 1-447): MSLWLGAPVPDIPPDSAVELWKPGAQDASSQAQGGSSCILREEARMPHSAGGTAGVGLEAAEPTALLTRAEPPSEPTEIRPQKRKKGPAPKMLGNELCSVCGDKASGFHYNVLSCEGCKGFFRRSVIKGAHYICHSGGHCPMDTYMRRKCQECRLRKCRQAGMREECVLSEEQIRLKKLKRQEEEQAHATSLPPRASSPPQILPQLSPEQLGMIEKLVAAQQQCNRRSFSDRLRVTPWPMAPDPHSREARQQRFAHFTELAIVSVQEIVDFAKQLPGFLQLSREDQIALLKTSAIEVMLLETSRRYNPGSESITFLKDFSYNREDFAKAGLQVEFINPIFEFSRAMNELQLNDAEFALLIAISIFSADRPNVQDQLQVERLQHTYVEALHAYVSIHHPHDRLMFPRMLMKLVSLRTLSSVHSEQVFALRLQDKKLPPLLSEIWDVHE
Put plainly: LXR Gal4 reporter transient transfection assay, mammalian two-hybrid, FL-M2H Gal4α. As to conditions: HEK293 cells; inverse agonist unless *. The class given is cell-based. The gist of the method: (§1)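 Mammalian two-hybrid read-out: interaction of LXRα or LXRβ (full length or ligand-binding domain, NFkB activation-domain fusions) with GAL4-fused SRC1 or NCoR domains drives GAL4-responsive firefly luciferase in HEK293 cells, normalised by Renilla cotransfection. Compounds given 4 h after transfection, ≤0.2% vehicle, cells lysed after 16 h.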

Data set [2] concerns the target T2, LXRβ full length (FL) (Homo sapiens, UniProt P55055, INS174Q).
T2 construct: the full length (FL) proteins of LXRα (amino acids 1-447); NP005684; NP009052; expressed in transfected cells; host or cells: HEK293
T2 sequence (P55055 with tags, fused parts or gaps INS174Q): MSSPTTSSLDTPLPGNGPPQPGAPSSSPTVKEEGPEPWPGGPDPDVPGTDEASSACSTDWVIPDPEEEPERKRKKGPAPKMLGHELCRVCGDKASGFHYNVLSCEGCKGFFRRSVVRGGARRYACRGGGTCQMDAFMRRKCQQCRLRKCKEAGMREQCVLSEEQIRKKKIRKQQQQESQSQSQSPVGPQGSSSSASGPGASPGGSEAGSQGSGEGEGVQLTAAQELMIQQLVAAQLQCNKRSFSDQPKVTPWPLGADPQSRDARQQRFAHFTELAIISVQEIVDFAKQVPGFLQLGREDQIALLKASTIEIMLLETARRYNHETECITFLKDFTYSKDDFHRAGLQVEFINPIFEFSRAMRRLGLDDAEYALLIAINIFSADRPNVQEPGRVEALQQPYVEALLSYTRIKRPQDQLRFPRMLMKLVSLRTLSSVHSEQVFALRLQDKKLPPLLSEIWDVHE
Kind of data set: LXR Gal4 reporter transient transfection assay, mammalian two-hybrid, FL-M2H Gal4β. As to conditions: HEK293 cells; inverse agonist unless *. Type of data set: cell-based. The gist of the method:
as §1

Data set [3] can be described thus: Pharmacokinetics in mice after single oral dosing, blood and liver exposure by LC-MS. Type of data set: in vivo, mice (C57/bl6/J). As to conditions: single oral dose 20 mg/kg; for Kp at 4 h / Kp at 12 h / Kp at 24 h: male, C57/bl6/J, mouse, liver/blood, read-out: liver/blood ratio. The procedure, abridged:
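Male C57BL/6J mice fasted ≥12 h, given a single oral dose of 20 mg/kg (n=3 per group). Sacrifice at 4, 12 or 24 h post-dose; liver and blood levels quantified by LC-MS.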

As to `Cc1ccc2ccccc2c1C(=O)N(Cc1ccc(-c2cccc([C@@H](C)C(=O)O)c2)cc1)Cc1ccc(C(F)(F)F)o1` [10/5], the EC50 in data set [1] is less than 100 nM. In addition, the EC50 in data set [2] was less than 100 nM. In data set [3] (time point 4 h), the Kp at 4 h was 45, the blood/plasma exposure was determined as 1.06 µM and the liver exposure came out at 47.9 µM.
In data set [1], `CCOC(=O)c1ccc(CN(Cc2ccc(-c3cccc(C(C)(C)C(=O)O)c3)cc2)C(=O)c2c(C)ccc3ccccc23)o1` [27/28] had a concentration giving a half-maximal response (EC50) of less than 100 nM. In data set [2], the EC50 is less than 100 nM. Also, in data set [3] (time point 4 h), the Kp at 4 h was found to be 844, the blood/plasma exposure was 0.05 µM and the liver exposure stood at 38.8 µM.
Take `COc1cc(-c2cccc(C(C)(C)C(=O)O)c2)ccc1CN(Cc1ccc(C(F)(F)F)o1)C(=O)c1c(C)ccc2ccccc12` [27/66]: the EC50 in data set [1] and in data set [2] was less than 100 nM each time.
With `Cc1ccc2ccccc2c1C(=O)N(Cc1ccc(-c2cccc(C(C)(C)C(=O)O)c2)cc1)Cc1ccc(C(F)F)o1` [27/36], the EC50 in data set [1] and in data set [2] was less than 100 nM throughout.
With `Cc1ccc2ccccc2c1C(=O)N(Cc1ccc(-c2cccc(C(C)(C)C(=O)O)c2)cc1)Cc1ccc(C(F)(F)F)o1` [27/26], the EC50 in data set [1] was less than 100 nM. The same molecule came in with an EC50 in data set [2] of less than 100 nM. Besides, in data set [3] (time point 4 h), the Kp at 4 h came to 5.5, the blood/plasma exposure stood at 16 µM and the liver exposure was 89 µM. In addition, in data set [3] (time point 12 h), the Kp at 12 h amounted to 3.3, the blood/plasma exposure is 6.4 µM and the liver exposure worked out at 21 µM. Also, in data set [3] (time point 24 h), the Kp at 24 h is 3.6, the blood/plasma exposure turned out to be 0.75 µM and the liver exposure came to 2.7 µM.
For the molecule `Cc1ccc2ccccc2c1C(=O)N(Cc1ccc(-c2cc(F)cc(C3(C(=O)O)CC3)c2)cc1)Cc1ccc(C(F)(F)F)o1` [27/76], the EC50 in data set [1] and in data set [2] was less than 100 nM throughout.
As to `COc1c(C)nc2ccccc2c1C(=O)N(Cc1ccc(-c2cccc(C(C)(C)C(=O)O)c2)cc1)Cc1ccc(C(F)(F)F)o1` [27/81], the EC50 in data set [1] and in data set [2] was less than 100 nM throughout.
As for `COc1ccc2c(c1CN(Cc1ccc(-c3cccc(C(C)(C)C(=O)O)c3)cc1)Cc1ccc(C(F)(F)F)o1)CCCC2` [27/17], the EC50 in data set [1] and in data set [2] was less than 100 nM throughout.
Turning to `Cc1ccc2ccccc2c1C(=O)N(Cc1ccc(C(F)(F)F)o1)Cc1ccc(-c2cccc(C(C)(C)C(=O)O)c2)cc1C#N` [27/7], the EC50 in data set [1] and in data set [2] was less than 100 nM each time.
Consider `Cc1nc2ccccc2c(C(=O)N(Cc2ccc(-c3cccc(C(C)(C)C(=O)O)c3)cc2)Cc2ccc(C(F)(F)F)o2)c1C` [27/79], for which the EC50 in data set [1] and in data set [2] was less than 100 nM in each case.
For `CCc1nc2ccccc2c(C(=O)N(Cc2ccc(-c3cccc(C(C)(C)C(=O)O)c3)cc2)Cc2ccc(C(F)(F)F)o2)c1C` [27/43], in data set [1], the half-maximal effective concentration (EC50) was less than 100 nM. This molecule had an EC50 in data set [2] of less than 100 nM. Further, in data set [3] (time point 12 h), the Kp at 12 h is 49, the blood/plasma exposure is 0.03 µM and the liver exposure was determined as 1.3 µM.
As to `CC(C)(C(=O)O)c1cccc(-c2ccc(CN(Cc3ccc(C(F)(F)F)o3)C(=O)c3c4ccccc4cc4ccccc34)cc2)c1` [27/47], the EC50 in data set [1] and in data set [2] was less than 100 nM in each case.
Molecule `Cc1ccc2ccccc2c1CN(Cc1ccc(-c2cccc(C(C)(C)C(=O)O)c2)cc1)Cc1ccc(C(F)(F)F)o1` [Example 24, 2-Methyl-2-(4′-((((2-methylnaphthalen-1-yl)methyl)((5-(trifluoromethyl)furan-2-yl)methyl)amino)methyl)-[1,1′-biphenyl]-3-yl)propanoic acid] returned an EC50 in data set [1] of less than 100 nM. The same molecule yielded an EC50 in data set [2] of less than 100 nM. Moreover, in data set [3] (time point 4 h), the Kp at 4 h is 11, the blood/plasma exposure was determined as 0.96 µM and the liver exposure came out at 10.3 µM. In data set [3] (time point 12 h), the Kp at 12 h amounted to 5.7, the blood/plasma exposure worked out at 0.21 µM and the liver exposure worked out at 1.2 µM. In data set [3] (time point 24 h), the Kp at 24 h stood at 2.9, the blood/plasma exposure was determined as 0.04 µM and the liver exposure stood at 0.13 µM.
As for `Cc1ccc2ccccc2c1C(=O)N(Cc1ccc(C(F)(F)F)o1)Cc1ncc(-c2cccc(C(C)(C)C(=O)O)c2)cc1Cl` [27/78], in data set [1], the EC50 was less than 100 nM. The EC50 in data set [2] was less than 100 nM. In data set [3] (time point 4 h), the Kp at 4 h was determined as 116, the blood/plasma exposure turned out to be 0.35 µM and the liver exposure came out at 40.9 µM.
For the molecule `Cc1nc2cccnc2c(C(=O)N(Cc2ccc(-c3cccc(C(C)(C)C(=O)O)c3)cc2)Cc2ccc(C(F)(F)F)o2)c1C` [27/93], the EC50 in data set [1] and in data set [2] was less than 100 nM throughout.
Consider `Cc1ccc2ccccc2c1C(=O)N(Cc1ccc(-c2cccc(C(C)(O)C(=O)O)c2)cc1)Cc1ccc(C(F)(F)F)o1` (centres unmarked) [27/10], for which the EC50 in data set [1] was less than 100 nM. Further, in data set [2], the EC50 is less than 100 nM. Also, in data set [3] (time point 12 h), the Kp at 12 h stood at 129, the blood/plasma exposure worked out at 0.01 µM and the liver exposure was 1.3 µM.
On to `Cc1ccc2ccccc2c1C(=O)N(Cc1ccc(-c2cccc(S(=O)(=O)CC(=O)O)c2)cc1)Cc1ccc(C(F)(F)F)o1` [Example 9], for which, in data set [3] (time point 4 h), the Kp at 4 h amounted to 72, the blood/plasma exposure was found to be 0.18 µM and the liver exposure turned out to be 12.7 µM. Further, in data set [3] (time point 24 h), the Kp at 24 h stood at 25, the blood/plasma exposure came out at 0.00 µM and the liver exposure turned out to be 0.10 µM.
Consider `Cc1ccc2ccccc2c1C(=O)N(Cc1ccc(-c2cccc(C(C)(C)C(=O)O)c2)cc1)Cc1ccc(C#N)o1` [27/38], for which the EC50 was 100 to 1000 nM in data set [1] and less than 100 nM in data set [2].
For `Cc1ccc2ccccc2c1C(=O)N(Cc1ccc(-c2cc(F)c(CO)c(S(=O)(=O)CC(=O)O)c2)cc1)Cc1ccc(C(F)(F)F)o1` [22/8], in data set [3] (time point 4 h), the Kp at 4 h turned out to be 19, the blood/plasma exposure worked out at 1.3 µM and the liver exposure stood at 23 µM. In addition, in data set [3] (time point 12 h), the Kp at 12 h came to 27, the blood/plasma exposure came out at 0.15 µM and the liver exposure turned out to be 4.1 µM.
Take `Cc1cc(C)c(C(=O)N(Cc2ccc(-c3cccc(C(C)(C)C(=O)O)c3)cc2)Cc2ccc(C(F)(F)F)o2)c(C)c1` [10/1]: the 50% effective concentration (EC50) in data set [1] and in data set [2] was less than 100 nM in each case.
Turning to `COc1ccc2c(c1C(=O)N(Cc1ccc(-c3cccc(C(C)(C)C(=O)O)c3)cc1)Cc1ccc(C(F)(F)F)o1)CCCC2` [27/45], the EC50 in data set [1] and in data set [2] was less than 100 nM each time.
